Results taken from PubChem BioAssay AID602296 (Broad Institute, 2012).
Results filed as inconclusive are left out. Activity calls are given as the source filed them.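 Rule for the calls: active = fitted activation curve crossing 40% at a concentration no higher than the sample's top valid tested dose; inconclusive = flat fitted curve at 30% to 70% activation, or poor curve fit; inactive = signal decrease, flat curve within 30%, or the rest.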 Peptide text beside a SMILES is read from it. * marks the point of attachment. Boc = CC(C)(C)OC(=O)*; OtBu = CC(C)(C)O*

What follows are molecules tested on NIH3T3-HGL HSF-1 response element luciferase, 48 h (assay: HSF-1 reporter activators over prolonged exposure, confirmation, cell-based, mouse, luciferase, cherry-pick, dose (AID 602296);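 note: test compounds applied by themselves with no MG132 co-treatment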).

Row | Compound | AC40
1 | C[C@@H]1C(NC(=O)c2ccccc2)CC2CC1C2(C)C (stereo not given in full) | > 26 µM (inactive)
2 | Cc1ccccc1-n1nnc2c(=O)oc3ccccc3c21 | > 26 µM (inactive)
3 | CC(C)c1ccc(C2NC(=O)c3ccccc3O2)cc1 (stereo not given) | 5.17 µM
4 | CC1(C)CC(=O)C(=Cc2cn(-c3ccccc3)nc2-c2ccccc2)C(=O)C1 | 14 µM
5 | COc1ccc(C2CC(=O)c3cnc(N4CCc5ccccc54)nc3C2)cc1OC (stereo not given) | > 26 µM (inactive)
6 | CCc1ccc(CN2C(=O)c3ccccc3C2C(=O)NCC2CCCO2)cc1 (stereo not given) | > 26 µM (inactive)
7 | O=C(O)CC12C[C@H]3C[C@@H](C1)CC(n1ncc(N4CCN(c5ccccc5)CC4)c(Cl)c1=O)(C3)C2 | > 26 µM (inactive)
8 | O=C(NCCN1CCN(C(=O)c2ccc(Br)cc2)CC1)c1ccc(Br)cc1 | > 26 µM (inactive)
9 | Cc1cc(-c2nnc(CCC(=O)N(C)Cc3cccc4ccccc34)o2)no1 | 12 µM
10 | Brc1cnc2nc(SC/C=C/c3ccccc3)[nH]c2c1 | 20.8 µM
11 | N#Cc1ccsc1NC(=O)CN1CCN(S(=O)(=O)c2ccc3ccccc3c2)CC1 | > 26 µM (inactive)
12 | Cc1c(Cl)ccc2c1NC(=O)C21NC(CCC(N)=O)[C@H]2C(=O)N(c3ccc(Cl)cc3)C(=O)[C@H]21 (stereo not given in full) | > 12 µM (inactive)
13 | O=C(OCc1csc(-c2ccccc2)n1)c1cccs1 | 0.901 µM
14 | COc1cnn(-c2cc(Oc3ccc(C)cc3)ncn2)c(=O)c1Cl | > 26 µM (inactive)
15 | COCOc1cc(O)c(C(=O)/C=C/c2ccccc2)c(OCOC)c1 | 7.9 µM
16 | CCOCCCNC(=S)Nc1ccc2nc(N3CCOCC3)cc(C)c2c1 | > 26 µM (inactive)
17 | Cc1ccnc(N2CCCC(C(=O)Nc3ccc(C)c(C)c3)C2)n1 (stereo not given) | > 26 µM (inactive)
18 | O=C(CSc1ccc(Cl)cc1)N1CCN(c2c(Cl)cccc2[N+](=O)[O-])CC1 | 3.34 µM
19 | CCC(=O)Nc1cccc(C(=O)/C=C/c2ccc(F)cc2)c1 | 11.2 µM
20 | Cc1ccc(-c2nn(-c3cc(Cl)ccc3[N+](=O)[O-])c(=O)c3ccccc23)cc1 | > 26 µM (inactive)
21 | C/C(=N\OC(=O)c1ccc(F)cc1)c1ccc(F)c(F)c1 | 24.7 µM
22 | COc1ccc(C2/C=C\CN(S(=O)(=O)/C=C/c3ccccc3)[C@H](Cc3ccccc3)C(=O)N2Cc2ccc(F)cc2)cc1 (stereo not given in full) | > 26 µM (inactive)
23 | Cc1cnn(-c2cc(N/N=C/c3cccc(F)c3)ncn2)c1 | 9.32 µM
24 | O=C(O)c1c(Cl)c(Cl)c(Cl)c(Cl)c1C(=O)N1CCCC1 | > 26 µM (inactive)
25 | COc1ccc(C)cc1-n1c(=O)c2ccccc2c2ccccc2c1=O | > 26 µM (inactive)
26 | Cc1onc(-c2ccccc2)c1C(=O)N=C(N)c1ccc(C(F)(F)F)cc1 | > 26 µM (inactive)
27 | Cc1ccc(C(=O)n2cnnc2N)cc1 | > 26 µM (inactive)

Row | Compound | AC40
28 | COC(=O)Cn1c(=O)c2c(nc3n2CC(C)CN3CCc2ccccc2)n(C)c1=O (stereo not given) | > 26 µM (inactive)
29 | CC(Oc1ccc(F)cc1Br)c1nc2ccccc2c(=O)[nH]1 (stereo not given) | 17.3 µM
30 | O=[N+]([O-])c1cc([N+](=O)[O-])c(Oc2c(F)cccc2F)cc1NN1CCCCC1 | > 26 µM (inactive)
31 | CC(C)NCC(O)COCc1ccc(Cl)cc1 (stereo not given) | > 26 µM (inactive)
32 | O=C(CC12CCC(CC1)C2)NCc1ccc2c(c1)OCO2 | > 26 µM (inactive)
33 | Cc1ccccc1CSc1nsc(N)n1 | 16.5 µM
34 | O=C(CC1(O)C(=O)Nc2ccc(Br)cc21)c1ccc2c(c1)OCO2 (stereo not given) | > 26 µM (inactive)
35 | CNc1nc(SC(C)C(=O)Nc2ccc(Cl)c(Cl)c2)nc(N2CCOCC2)n1 (stereo not given) | > 26 µM (inactive)
36 | CN(C)C(=O)c1ccc(=O)n(Cc2ccc(Cl)cc2Cl)c1 | > 26 µM (inactive)
37 | N=c1sccn1CC(=O)Nc1cc(Cl)ccc1Oc1ccccc1 | > 26 µM (inactive)
38 | COC(=O)c1ccc(CSc2ncnc3c2oc2ccccc23)o1 | > 26 µM (inactive)
39 | COc1cc(C2Nc3ccc4ncccc4c3C3=C2C(=O)CCC3)cc(OC)c1OC (stereo not given) | 5.44 µM
40 | COc1ccc(NS(=O)(=O)c2cc(NC(=O)c3cnccn3)ccc2N2CCCC2)cc1 | > 26 µM (inactive)
41 | COc1ccc(N=C2NC(=O)/C(=C\C=C\c3ccco3)S2)cc1 | 12.1 µM
42 | CCOC(=O)/C=C(\C)Nc1cc(C)nn1-c1ccccc1 | 17.2 µM
43 | S=C(NC1CCCCC1)NC1CC2C=CC1C2 (stereo not given) | > 26 µM (inactive)
44 | COc1cc(CNCC(O)c2ccccc2)ccc1OCc1ccc(Cl)nc1 (stereo not given) | > 26 µM (inactive)
45 | COc1ccc(/C=C/C(=O)OC2CCCN(C)C2)cc1 (stereo not given) | 12.6 µM
46 | O=C(NC1CCSc2ccccc21)c1ccccc1Cl (stereo not given) | 6.46 µM
47 | S=c1[nH]nc(-c2ccccc2)n1/N=C/c1ccc(-c2ccccc2Cl)o1 | > 12 µM (inactive)
48 | CC(C)(C)c1[nH]ncc1[N+](=O)[O-] | > 26 µM (inactive)
49 | CCCC12CN3CC(C)(CN(C1)C3c1ccc3c(c1)OCO3)C2=O (stereo not given) | > 26 µM (inactive)
50 | CC(C)[C@H](NC(=O)OC(C)(C)C)c1nnc(SCC(=O)Nc2ccc(Br)cc2)o1 | > 26 µM (inactive)
51 | Cn1c(CO)cnc1SCC(=O)c1ccc(Cl)cc1 | 8.6 µM
52 | NC(=O)CSC1=N/C(=C\c2ccco2)C(=O)N1c1ccc(OC(F)F)cc1 | 8.11 µM
53 | Cc1nc2ccccc2nc(C)c1=NOCc1ccccc1Cl | 3.97 µM
54 | CCOC(=O)Nc1ccc(C(=O)Oc2ccccc2)c(O)c1 | 14.2 µM

Row | Compound | AC40
55 | O=C(CSCc1ccc(Br)cc1)N1CCCC1 | 11.3 µM
56 | COc1ccc(CCNc2ncnc3c2c(C)c(C)n3CCO)cc1OC | > 26 µM (inactive)
57 | CC1CC(C)(C)N(C(=O)NC2CCCCC2)c2ccccc21 (stereo not given) | 12.9 µM
58 | CCOc1cc(/C=C2/SC(=S)N(CC3CCCO3)C2=O)ccc1O (stereo not given) | > 26 µM (inactive)
59 | O=C1CCC(/C=C/c2ccccc2)=NN1 | > 26 µM (inactive)
60 | COC1(OC)C(/C=C/c2ccc(Cl)cc2)C(C#N)(C#N)C1(OC)OC (stereo not given) | 16.9 µM
61 | COCCCNC(=O)CCn1c(=O)c2ccccc2n(CC(=O)Nc2cc(Cl)ccc2C)c1=O | > 26 µM (inactive)
62 | COc1ccc(/C=C/C(=O)N(C(C)C)C(C)C)cc1Br | 6.82 µM
63 | O=C(c1ccccc1Br)N1CCN(c2ccccc2)CC1 | > 26 µM (inactive)
64 | CCOc1cc(N2CCOCC2)c(OCC)cc1NC(=O)Cc1cccc2ccccc12 | > 26 µM (inactive)
65 | COc1ccc(C2(C)NC(=O)N(CC3CCCCC3)C2=O)cc1 (stereo not given) | > 26 µM (inactive)
66 | CC(=O)c1cccc(N(CC(=O)Nc2ccc(F)cc2F)S(C)(=O)=O)c1 | 5.46 µM
67 | CCOC(=O)c1cccc(NC(=O)Cn2c(CC(=O)NC)nc3ccccc32)c1 | > 26 µM (inactive)
68 | Cc1ccc(S(=O)(=O)N(CC(=O)NCc2ccco2)Cc2ccc(F)cc2)cc1 | > 26 µM (inactive)
69 | CCOc1cc(C(=S)N2CCOCC2)ccc1OS(=O)(=O)c1ccc(C)cc1 | > 26 µM (inactive)
70 | CCCc1nc(SCC(=O)Nc2cc(C)on2)c2ccccc2n1 | > 26 µM (inactive)
71 | O[C@@H]1C2CCCC1[C@]1(O)CCCCC1C2 (stereo not given in full) | > 26 µM (inactive)
72 | CC(C)(C)N(NS(=O)(=O)c1ccc(F)cc1)c1ccccc1 | > 26 µM (inactive)
73 | CCCC(=O)Nc1cc(-c2nn(C)c(=O)c3ccccc23)ccc1OC | > 26 µM (inactive)
74 | Nn1cnnc1N/N=C/c1cc([N+](=O)[O-])c(Cl)cc1Cl | > 26 µM (inactive)
75 | Cn1c(Cl)cnc1C1CC(=O)c2cc(Cl)ccc2O1 (stereo not given) | > 26 µM (inactive)
76 | O=C1c2ccccc2C(=O)N1CC(O)COc1ccc(Br)cc1 (stereo not given) | 13.7 µM
77 | O=C1CCCN1CCCN=c1c([N+](=O)[O-])nn(-c2ccc(Cl)cc2)n1O | > 12 µM (inactive)
78 | N#Cc1ccccc1COC(=O)c1cc(=O)c2ccccc2o1 | 26 µM
79 | N#C/C(C(=O)NCc1ccccc1)=C1/N=C(NC(=O)c2ccco2)c2ccccc21 | > 26 µM (inactive)
80 | O=C1c2ccccc2C(=O)N1CCC(=O)N1CCCc2ccccc21 | > 26 µM (inactive)
81 | O=Nc1c(-c2ccccc2)[nH]n(-c2ccccc2)c1=O | 20.7 µM

Row | Compound | AC40
82 | O=c1[nH]n(CC2COC3(CCCCC3)O2)c(=O)c2ccccc12 (stereo not given) | 5.22 µM
83 | COC(=O)CC1C(=O)NCCN1C(=O)c1ccc(S(=O)(=O)N2CCOCC2)cc1 (stereo not given) | > 26 µM (inactive)
84 | O=C(c1ccc2c(=O)n(C3CCCC3)c(=S)[nH]c2c1)N1CCc2ccccc21 | > 26 µM (inactive)
85 | Cc1ccc(Nc2c(N)c(=O)oc3ccccc23)cc1 | > 26 µM (inactive)
86 | O=c1c2ccccc2[nH]c(=S)n1CCC1=CCCCC1 | 11.3 µM
87 | CNc1nc(-c2ccccc2)cc(C)c1S(C)(=O)=O | > 26 µM (inactive)
88 | CC1(c2ccc([N+](=O)[O-])cc2)NC(=O)N(CC(=O)c2ccc3c(c2)OCO3)C1=O (stereo not given) | > 26 µM (inactive)
89 | CC(C)NC(=O)CN(C(=O)CCC(=O)Nc1nccs1)c1ccc2c(c1)OCO2 | > 26 µM (inactive)
90 | FC(F)(F)c1cccc(NC(=S)NCc2ccccn2)c1 | 7.35 µM
91 | COC(=O)C(Cc1ccc(O)cc1)NC(=O)C(CC(=O)OC(C)(C)C)NC(=O)OC(C)(C)C (stereo not given) (Boc-Asp(OtBu)-Tyr-OMe; configuration not given here) | 16.5 µM
92 | Cc1ccc2nc(NCc3ccccc3)c(C=O)c(=O)n2c1 | 11 µM
93 | NC(=O)c1c(NC(=O)Cc2ccccc2)sc2c1CCN(Cc1ccccc1)C2 | > 26 µM (inactive)
94 | CCCCOc1ccc(C(=O)N/N=C/c2cn[nH]c2-c2ccc(OC)c(OC)c2)cc1 | > 26 µM (inactive)
95 | CC1=Nc2ccccc2/C1=C/c1nc(-c2ccc(C)s2)oc1O | 10.1 µM
96 | O=C(CN1CCOCC1)N(c1ccccc1)c1ccc2ccccc2c1 | 14.6 µM
97 | CN(C)CCNC(=O)/C(=C/c1ccc(-c2cccc(Cl)c2)o1)NC(=O)c1ccccc1 | > 26 µM (inactive)
98 | Nc1ncnc2c1CCC2 | > 26 µM (inactive)
99 | Cn1ccc(C(=O)N/N=C/c2ccncc2)n1 | 14.3 µM
100 | O=c1[nH]c2c(s1)C=Nc1ccccc1N2 | 4.98 µM
101 | CC1(C)CC(=O)C(C=Nc2cccnc2)=C(O)C1 | > 26 µM (inactive)
102 | Cc1c(/C=N/NC(=O)c2ccc(Br)o2)cnn1C | 22.4 µM
103 | Cc1ccc2oc(C(=O)N3CCC(O)(c4cccc(C(F)(F)F)c4)CC3)c(C)c2c1 | 9.28 µM
104 | Cc1ccc(NC(=O)Cn2c(CCC(=O)O)ccc2-c2cccs2)cc1 | > 26 µM (inactive)
105 | Cc1ccc(C)c(CN2C(=O)COc3ccccc32)c1 | > 26 µM (inactive)
